Laboratory results as given in US7658916B2, “Methods of enhancing lysosomal storage disease therapy by modulation of cell surface receptor density” (Genzyme Corporation, priority 2002, dated 2010).
Where two headings read alike, the source gives them in different places.

Tests used:
L6 myotubes = experiment: Alpha-galactosidase uptake by L6 myotubes in vitro; type: cell-based, rat; conditions: 5 mM M6P; to the endogenous level
Procedure: Muscles are the major target tissues for enzyme replacement therapy of Pompe disease due to the lack of acid alpha-glucosidase. To determine if the M6P/IGF-II receptor-mediated lysosomal enzyme uptake pathway can be augmented by insulin/glucose, the effects of insulin/glucose were analyzed on induced muscle cells (myotubes) in vitro. L6 myoblasts (or induced myotubes) and Hep3B cells were cultured in 6-well dishes. Rat L6 myoblasts (ATCC# CRL-1458) were cultured at 37° C. under 5% CO2 in VitaCell DMEM media (ATCC# 30-2002) with 4 mM L-glutamine, 10% fetal bovine serum (Gibco #16000-044) and 1× penicillin/streptomycin. Once confluent, cells were switched to VitaCell DMEM plus 2% horse sera (Gibco# 26050-088) and 1× penicillin/streptomycin. Media were changed every 3 days and at day 9-10, myotubes could be observed as multinuclear tubes. About 30-40% of the myoblasts formed myotubes. Cells were used for uptake assay at day 10. Hep3B cells were grown in MEM-eagle (Gibco# 11960-044) with 10% FBS, 1×NEAA, 1× sodium pyruvate and 1× penicillin/streptomycin.
Before the uptake assay, the cells were washed once with PBS and once with DMEM minus glucose media (Gibco#11966-025), then the cells were starved in 1.5 ml of DMEM minus glucose media for 1 hour at 37° C. […]

[1] = tested on: rat alveolar macrophage cell line NR 8383; experiment: CEREZYME enzyme uptake by rat alveolar macrophage cells in vitro; type: cell-based
Procedure: (§1) The rat alveolar macrophage cell line NR 8383 (ATCC# CRL-2192) were cultured in Kaighn's modified F12K nutrient mixture (Gibco# 21127-002) with 2 mM L-glutamine (Gibco# 25030-081), 15% heat-inactivated fetal bovine serum (FBS) (Gibco# 16000-044) and 1× penicillin/streptomycin. Most of the cells were attached to the dish, with some in suspension. Hep3B cells were grown in MEM-eagle (Gibco# 11960-044) with Earles salts and 10% FBS, 1× non-essential amino acid (NEAA), 1× sodium pyruvate and 1× penicillin/streptomycin. Human liver sinusoidal endothelial cells (LSECS) (ACBRI#-566) were purchased from Applied Cell Biology Research Institute through Cell Systems, Inc. Cells were cultured in CS-C Media (CSC# 4Z0-500) with additional 10% FBS. During passage, the culture dishes or flasks were treated with attachment factor solution (CSC# 4Z0-210). Prior to seeding, the purity of the LSECs was confirmed by immunostaining with anti-VOA Willebrand factor (data not shown).
For dexamethasone or other drug treatment, the cells were incubated with the drugs under various conditions as indicated in each figure legend (FIGS. 1A-F). […]
(§2) The lysates were used for glucocerebrosidase assay in duplicate or triplicate with 4-MU-beta-glucoside (Sigma# M-3633) as substrate and with CEREZYME® enzyme as standard. Proteins were quantified using a MicroBCA protein assay kit (Pierce) with BSA as standard. […]

Hep3B cells = experiment: CEREZYME enzyme uptake by hepatocytes (Hep3B) in vitro; type: cell-based; conditions: dexamethasone treatment; result in words
Procedure: as §1, with “shown). […]” for “shown).”
as §2

[2] = tested on: spleen and bone marrow tissues; experiment: Glucocerebrosidase activity in rat spleen and bone marrow after CEREZYME enzyme injection; type: in vivo, Fisher rats; conditions: rats, 100 μg dexamethasone, 2.5 U CEREZYME; equals level of non-treated rats given 10 U
Procedure: To assess the effect of dexamethasone treatment on CEREZYME® enzyme uptake by liver macrophage (Kupffer cells) in vivo, Fisher rats (female, ˜130 g) were divided into four groups (n=3). The first and second groups of rats only received vehicle PBS without dexamethasone, and the third and fourth groups were treated with water-soluble dexamethasone sodium phosphate (American Reagent Laboratories Inc.) at 10 μg and 100 μg (diluted into 200 μl PBS) per rat through intraperitoneal injection. Four doses of dexamethasone were given over two consecutive days, one dose in early morning and one dose in late afternoon on each day. On the third day, CEREZYME® enzyme at 2.5 U per rat (˜18 U/kg) diluted in PBS was administrated into the second, third and fourth groups of rats through tail vein bolus injection. The first group was used as negative control.
Direct measurement of glucocerebrosidase activity in spleen, liver and bone marrow tissues after CEREZYME® enzyme uptake was also assessed in another set of experiments. Five groups of rats were used (n=3). The first four groups were treated in the same manner as described above, whereas the fifth group of rats was not treated with dexamethasone but received 10 U of CEREZYME® enzyme per rat and used as positive controls. […] The supernatants were saved and measured for glucocerebrosidase activity and normalized to protein content as described above.

spleen macrophages = experiment: CEREZYME enzyme uptake in vivo by isolated rat spleen macrophages; design: species or system Fisher rats
Procedure: Quantitative analysis of the dexamethasone effects on CEREZYME® enzyme uptake in vivo was performed on macrophage cells isolated from spleens through the attachment method (Gessani S, 2000 #35). Fisher rats (female, 180-200 g) were used and divided into four groups. After dexamethasone (50 μg/rat) pretreatment and CEREZYME® enzyme (or unmodified glucocerebrosidase) injection, rat spleens were excised and cut into small pieces. The total spleen cells were released by pressing between two frosted cover slides, followed by washing with 15 ml of RPMI media containing 10% heat-inactivated FBS. Red blood cells were lysed with red blood cell lysis buffer (Sigma). The rest of the splenocytes were seeded in 150-mm tissue culture dishes and incubated at 37° C. for 1 hour for the attachment isolation of macrophages. 15 ml of media were added to five 150-mm tissue culture dishes as blanks for nonspecific protein binding. After removing the cells in suspension and washing the attached cells 5 times with PBS, the attached cells were lysed in KP buffer by scrapping and assayed for glucocerebrosidase activity and protein content. The average of protein content of the blank dishes was subtracted from each cell sample. For dose response of CEREZYME® enzyme to dexamethasone, rats pretreated with dexamethasone were injected with different doses of CEREZYME® enzyme as for the control groups without dexamethasone pretreatment. Attached cells (>90% spleen macrophages) were isolated for glucocerebrosidase assay as described above. […] The absolute enzyme activity, however, was ˜220% of the control without dexamethasone treatment (FIG. 4A). The dexamethasone effects were also tested at other CEREZYME® enzyme doses at 7 U/kg and 72 U/kg respectively, which are either below or above the saturation levels (Mistry, 1996 #10). As is shown in FIG. 4B, at both doses, the dexamethasone effects were about the same and increased CEREZYME® enzyme uptake to a similar level as with 18 U/kg of CEREZYME® enzyme, namely, about 3-fold increase after dosage correction. The absolute CEREZYME® enzyme activity was ˜250% of the control sample at 72 U/kg.

[3] = tested on: asialoglycoprotein receptors (ASGPR); conditions: cited from earlier work
muscle tissues [4] = tested on: muscle tissues; design: species or system normal mice (129 SV); conditions: mouse, in vivo, 6 mg/kg
Procedure: (§3) To directly evaluate the effects of insulin/glucose on alpha-galactosidase uptake in vivo, normal (129 SV, 3-4 month, male) and Fabry mice (on 129SV background, 3-4 month, male) were used for uptake assays under different conditions.
(§4) Normal mice were fasted overnight from 5 p.m. to 9 a.m. next morning, and then divided into three groups. […] The second group directly received alpha-galactosidase injection (6 mg/kg) through tail vein as bolus injection; the third group was first gavaged with 0.5 ml of 50% glucose followed by subcutaneous injection of insulin (0.25 U) on the upper back 10 minutes later, after another 45 minutes, alpha-galactosidase was injected as for the second group. Two hours after alpha-galactosidase injection, different tissues (heart, diaphragm, tongue, muscle gastrocnemius, muscle vastus laterus, muscle paraspinal) were collected and assayed for alpha-galactosidase activity after homogenization in alpha-galactosidase assay buffer plus 1% of triton and 1× protease inhibitor cocktail.

muscle tissues [5] = conditions: mouse, in vivo
Procedure: as §3, §4
Here, 4 groups of Fabry mice were used and similarly treated as for the normal mice. […]

mannose receptor = conditions: cited from earlier work

## O=P(O)(O)OC[C@H]1OC(O)[C@@H](O)[C@@H](O)[C@@H]1O (stereo partly drawn) [M6P]
L6 myotubes
  inhibition of alpha-galactosidase uptake by myotubes: entire alpha-galactosidase uptake can be inhibited

## C[C@@H]1C[C@H]2[C@@H]3CCC4=CC(=O)C=C[C@]4(C)[C@@]3(F)[C@@H](O)C[C@]2(C)[C@@]1(O)C(=O)CO [dexamethasone]
[1]; after two days, separate experiment
  increase of CEREZYME enzyme uptake by rat alveolar macrophage cells: 250-350%
Hep3B cells
  effect on CEREZYME enzyme uptake by hepatocytes: did not significantly enhance
[2]
  increase of total glucocerebrosidase activity in spleen: 4 fold
Spleen macrophages; CEREZYME 7 U/kg and 72 U/kg
  increase in CEREZYME enzyme uptake by spleen macrophages after dosage correction: about 3 fold
Spleen macrophages; CEREZYME 18 U/kg
  absolute enzyme activity in spleen macrophages, % of control without dexamethasone: ~220%
Spleen macrophages; CEREZYME 72 U/kg
  absolute CEREZYME enzyme activity in spleen macrophages, % of control sample: ~250%
Spleen macrophages; dexamethasone 50 μg/rat, CEREZYME 18 U/kg
  increase in CEREZYME enzyme uptake by spleen macrophages after normalizing the dose contribution: at least 3 fold

## Interferon alpha
[3]; after 3-6 hour treatment
  inhibition of binding and uptake of asialoglycoproteins: 50%
[3]; after 24 hour treatment
  inhibition of binding and uptake of asialoglycoproteins: ~100%

## alpha-galactosidase: recombinant human alpha-galactosidase, used as a model M6P-bearing lysosomal enzyme
Muscle tissues [4]
  alpha-galactosidase activity in muscle tissues after injection alone: increased its activity in all the muscle tissues
Muscle tissues [5]
  alpha-galactosidase activity in tissues relative to wildtype tissues: about similar levels
  increase in alpha-galactosidase activity in heart over wildtype tissue: more than 10 fold

## prostaglandin E
Mannose receptor
  enhancement of mannose receptor cell surface expression on macrophages: 4-6 fold

B1: mouse interferon-gamma: mouse interferon-γ, species-specific down-regulator of mannose receptor expression on macrophage cells (protein, UniProt P01580 23-155, looked up)
Interferon gamma: HGTVIESLESLNNYFNSSGIDVEEKSLFLDIWRNWQKDGDMKILQSQIISFYLRLFEVLKDNQAISNNISVIESHLITTFFSNSKAKKDAFMSIAKFEVNNPQVQRQAFNELIRVVHQLLPESSLRKRKRSRC
[1]; result in words
  effect on CEREZYME enzyme uptake by macrophage cells: did not enhance or inhibit

B2: interleukin-4: cytokine shown to enhance mannose receptor cell surface expression on macrophages (protein, UniProt P05112 25-153, looked up)
Interleukin-4: HKCDITLQEIIKTLNSLTEQKTLCTELTVTDIFAASKNTTEKETFCRAATVLRQFYSHHEKDTRCLGATAQQFHRHKQLIRFLKRLDRNLWGLAGLNSCPVKEANQSTLENFLERLKTIMREKYSKCSS
Mannose receptor
  enhancement of mannose receptor cell surface expression on macrophages: 10-15 fold

B3: interferon-gamma: cytokine that down-regulates mannose receptors and asialoglycoprotein receptors (protein, UniProt P01579 24-161, looked up)
Interferon gamma: QDPYVKEAENLKKYFNAGHSDVADNGTLFLGILKNWKEESDRKIMQSQIVSFYFKLFKNFKDDQSIQKSVETIKEDMNVKFFNSNKKKRDDFEKLTNYSVTDLNVQRKAIHELIQVMAELSPAAKTGKRKRSQMLFRG
[3]; after 3-6 hour treatment
  inhibition of binding and uptake of asialoglycoproteins: 50%
[3]; after 24 hour treatment
  inhibition of binding and uptake of asialoglycoproteins: ~100%
